US4560509A, “Antibiotic A39079 factor S-1” (Eli Lilly and Company, priority 1983, dated 1985)
In brackets after ≈: the same amount, converted by molar mass.

Legend:
[1] = tested on: Acinetobacter calcoaceticus AC12; assay: standard agar-dilution MIC assay; assay type: cell-based
Excerpt: (§1) Table V summarizes the minimal inhibitory concentrations (MIC) at which factor S-1 inhibits certain organisms as determined by standard agar-dilution assays. In Table V, the activity of factor S-1 is compared with that of rifampin.

[2] = tested on: Citrobacter freundii CF17; assay: standard agar-dilution MIC assay; assay type: cell-based; conditions: agar dilution; Citrobacter freundii CF17; read-out: MIC
Excerpt: as §1

[3] = tested on: Enterobacter aerogenes C32; assay: standard agar-dilution MIC assay; assay type: cell-based; conditions: Klebsiella aerogenes; agar dilution; Enterobacter aerogenes C32; read-out: MIC
Excerpt: as §1

[4] = tested on: Enterobacter aerogenes EB17; assay: standard agar-dilution MIC assay; assay type: cell-based; conditions: Klebsiella aerogenes; agar dilution; Enterobacter aerogenes EB17; read-out: MIC
Excerpt: as §1

[5] = tested on: Enterobacter cloacae 265A; assay: standard agar-dilution MIC assay; assay type: cell-based; conditions: agar dilution; Enterobacter cloacae 265A; read-out: MIC
Excerpt: as §1

[6] = tested on: Escherichia coli TEM; assay: standard agar-dilution MIC assay; assay type: cell-based
Excerpt: as §1

[7] = tested on: Haemophilus influenzae 76; assay: standard agar-dilution MIC assay; assay type: cell-based
Excerpt: as §1

[8] = tested on: Klebsiella pneumoniae X26; assay: standard agar-dilution MIC assay; assay type: cell-based; conditions: agar dilution; Klebsiella pneumoniae X26; read-out: MIC
Excerpt: as §1

[9] = tested on: Klebsiella pneumoniae X68; assay: standard agar-dilution MIC assay; assay type: cell-based; conditions: agar dilution; Klebsiella pneumoniae X68; read-out: MIC
Excerpt: as §1

[10] = tested on: Proteus inconstans PR33; assay: standard agar-dilution MIC assay; assay type: cell-based; conditions: Providencia alcalifaciens; agar dilution; Proteus inconstans PR33; read-out: MIC
Excerpt: as §1

[11] = tested on: Proteus morganii PR15; assay: standard agar-dilution MIC assay; assay type: cell-based; conditions: Morganella morganii; agar dilution; Proteus morganii PR15; read-out: MIC
Excerpt: as §1

[12] = tested on: Proteus rettgeri C24; assay: standard agar-dilution MIC assay; assay type: cell-based; conditions: Providencia rettgeri; agar dilution; Proteus rettgeri C24; read-out: MIC
Excerpt: as §1

[13] = tested on: Pseudomonas aeruginosa Ps18; assay: standard agar-dilution MIC assay; assay type: cell-based
Excerpt: as §1

[14] = tested on: Pseudomonas aeruginosa Ps72; assay: standard agar-dilution MIC assay; assay type: cell-based
Excerpt: as §1

[15] = tested on: Pseudomonas aeruginosa X239; assay: standard agar-dilution MIC assay; assay type: cell-based; conditions: agar dilution; Pseudomonas aeruginosa X239; read-out: MIC
Excerpt: as §1

[16] = tested on: Salmonella typhi 1335; assay: standard agar-dilution MIC assay; assay type: cell-based; conditions: Salmonella enterica
Excerpt: as §1

[17] = tested on: Salmonella typhi X514; assay: standard agar-dilution MIC assay; assay type: cell-based; conditions: Salmonella enterica
Excerpt: as §1

[18] = tested on: Serratia marcescens SE3; assay: standard agar-dilution MIC assay; assay type: cell-based; conditions: agar dilution; Serratia marcescens SE3; read-out: MIC
Excerpt: as §1

[19] = tested on: Serratia marcescens X99; assay: standard agar-dilution MIC assay; assay type: cell-based; conditions: agar dilution; Serratia marcescens X99; read-out: MIC
Excerpt: as §1

[20] = tested on: Shigella sonnei N9; assay: standard agar-dilution MIC assay; assay type: cell-based
Excerpt: as §1

[21] = tested on: Staphylococcus aureus NRRL B313; assay: standard agar-dilution MIC assay; assay type: cell-based; conditions: NRRLB313; agar dilution; Staphylococcus aureus NRRL B313; read-out: MIC
Excerpt: as §1

[22] = tested on: Staphylococcus aureus S13E; assay: standard agar-dilution MIC assay; assay type: cell-based
Excerpt: as §1

[23] = tested on: Staphylococcus aureus V41; assay: standard agar-dilution MIC assay; assay type: cell-based; conditions: agar dilution; Staphylococcus aureus V41; read-out: MIC
Excerpt: as §1

[24] = tested on: Staphylococcus aureus X400; assay: standard agar-dilution MIC assay; assay type: cell-based; conditions: agar dilution; Staphylococcus aureus X400; read-out: MIC
Excerpt: as §1

[25] = tested on: Streptococcus faecium ATCC 9790; assay: standard agar-dilution MIC assay; assay type: cell-based; conditions: Enterococcus faecium, ATCC9790; agar dilution; Streptococcus faecium ATCC 9790; read-out: MIC
Excerpt: as §1

[26] = tested on: Streptococcus pneumoniae Park 1; assay: standard agar-dilution MIC assay; assay type: cell-based; conditions: PARK1; agar dilution; Streptococcus pneumoniae Park 1; read-out: MIC
Excerpt: as §1

[27] = tested on: Streptococcus sp. group D 9960; assay: standard agar-dilution MIC assay; assay type: cell-based; conditions: agar dilution; Streptococcus sp. group D 9960; read-out: MIC
Excerpt: as §1

[28] = tested on: pathogenic bacteria; assay: growth inhibition of pathogenic bacteria (general statement); assay type: cell-based
Excerpt: as §1

[29] = solubility; assay type: physicochemical
[30] = stability in aqueous methanol solutions; assay type: physicochemical
Experimental: (7) Stability: Stability studies on factor S-1 in aqueous methanol solutions were run at pH levels of 2,5,7 and 9 and at temperatures of 4° C., 25° C., and 37° C.

[31] = tested on: Micrococcus luteus; assay: antibiotic activity of column fractions; assay type: cell-based
Experimental: Whole broth (100 L), prepared in a manner similar to that of Example 1, Section B, was filtered using a filter aid (Hyflo Supercel, Johns-ManvilleCorp.). The filtered broth (86 L) is adjusted to pH 2 with 5N hydrochloric acid and then is extracted twice with ethyl acetate (1/2 volumes). The ethyl acetate extracts are concentrated under vacuum to give an oily residue (49 g). This residue is dissolved in methanol and placed on a 10-L Diaion HP-20 column (Mitsubishi Industries). The column is washed with water (500 ml) and eluted with acetonitrile:water (30 L of 3:7 and 50 L of 3:2) and acetonitrile (20 L). Elution is carried out at a rate of 100 ml/min., collecting 4-liter fractions. Fractions are tested for antibiotic activity against Micrococcus luteus, Escherichia coli, and Neurospora crassa.
Factor S-1 is further purified in 200-mg portions by dissolving it in methanol and chromatographing the solution on a 1"×30-cm column packed with Zorbax ODS (12μ) (E. I. duPont). The column is eluted at 10 ml/min with 45% acetonitrile in 0.01% trifluoroacetic acid (400 ml) and then with a 400-ml gradient of from 45%-100% acetonitrile in 0.01% trifluoroacetic acid. Fractions are checked by UV absorption at 264 nm and by disc bioassay against M. luteus. Fractions containing only factor S-1 are combined, concentrated and lyophilized to dryness. […]

CC(=O)OC1C(C)C(O)C=COC2(C)Oc3c(C)c(O)c4c(c3C2=O)C(=O)C(C)=C(NC(=O)C=CC=CC(C)C(O)C(C)C(O)C1C)C4=O (stereo not drawn) [Factor S-1]
MIC [1]: 2 µg/mL (≈ 2.93 µM)
MIC [2]: 16 µg/mL (≈ 23.5 µM)
MIC [3]: 16 µg/mL (≈ 23.5 µM)
MIC [4]: 32 µg/mL (≈ 46.9 µM)
MIC [5]: 32 µg/mL (≈ 46.9 µM)
MIC [6]: > 128 µg/mL
MIC [7]: 0.125 µg/mL (≈ 0.183 µM)
MIC [8]: 32 µg/mL (≈ 46.9 µM)
MIC [9]: 16 µg/mL (≈ 23.5 µM)
MIC [10]: 8 µg/mL (≈ 11.7 µM)
MIC [11]: 8 µg/mL (≈ 11.7 µM)
MIC [12]: 2 µg/mL (≈ 2.93 µM)
MIC [13]: > 128 µg/mL
MIC [14]: 16 µg/mL (≈ 23.5 µM)
MIC [15]: 16 µg/mL (≈ 23.5 µM)
MIC [16]: 32 µg/mL (≈ 46.9 µM)
MIC [17]: 32 µg/mL (≈ 46.9 µM)
MIC [18]: 16 µg/mL (≈ 23.5 µM)
MIC [19]: 32 µg/mL (≈ 46.9 µM)
MIC [20]: 8 µg/mL (≈ 11.7 µM)
MIC [21]: 0.015 µg/mL (≈ 0.022 µM)
MIC [22]: 0.015 µg/mL (≈ 0.022 µM)
MIC [23]: 0.015 µg/mL (≈ 0.022 µM)
MIC [24]: 0.06 µg/mL (≈ 0.088 µM)
MIC [25]: 1 µg/mL (≈ 1.47 µM)
MIC [26]: < 0.008 µg/mL
MIC [27]: 1 µg/mL (≈ 1.47 µM)
inhibition of growth of pathogenic bacteria [28]: inhibits the growth of a broad spectrum of pathogenic bacteria, especially gram-positive bacteria
solubility ([29]; solvents such as methanol, acetonitrile and acetone): soluble
solubility ([29]; water): only slightly soluble
stability versus temperature ([30]; 4° C., 25° C. and 37° C.): most stable at 4° C., less stable at 25° C., and least stable at 37 °C
stability versus pH ([30]; pH 2, 5, 7 and 9): more stable in slightly acidic, neutral and basic solutions than in strongly acidic solutions (pH=2)
activity against M. luteus [31]: active
